Source: ChEMBL document CHEMBL3600381, “Small-molecule phosphodiesterase probes: discovery of potent and selective CNS-penetrable quinazoline inhibitors of PDE1” (Medchemcomm, 2014)

How the values were obtained:
[1] = biological target: T1, Dual specificity calcium/calmodulin-dependent 3',5'-cyclic nucleotide phosphodiesterase 1B (Homo sapiens, UniProt Q01064); assay: Inhibition of PDE1B (unknown origin) at 1 uM
[2] = biological target: T1, Dual specificity calcium/calmodulin-dependent 3',5'-cyclic nucleotide phosphodiesterase 1B; assay: Inhibition of PDE1B (unknown origin)
[3] = biological target: cAMP and cAMP-inhibited cGMP 3',5'-cyclic phosphodiesterase 10A (Homo sapiens, UniProt Q9Y233); assay: Inhibition of PDE10A (unknown origin)
[4] = Tmax in mouse at 32 mg/kg, sc; type: ADME, organism-based; details: in vivo
[5] = Half life in mouse at 32 mg/kg, sc; type: ADME, organism-based; details: in vivo
[6] = Fraction unbound in mouse at 32 mg/kg, sc; type: ADME, organism-based; details: in vivo
Nucleic Acid [7] = assay: Ratio of drug uptake from blood to plasma in mouse at 32 mg/kg, sc; type: ADME, organism-based; details: in vivo
[8] = Tmax in rat at 10 mg/kg, sc; type: ADME, organism-based; details: in vivo
[9] = Half life in rat at 10 mg/kg, sc; type: ADME, organism-based; details: in vivo
[10] = Fraction unbound in rat at 10 mg/kg, sc; type: ADME, organism-based; details: in vivo
[11] = Ratio of drug uptake from blood to plasma in rat at 10 mg/kg, sc; type: ADME, organism-based; details: blood and plasma
Nucleic Acid [12] = assay: Ratio of drug level in CSF to unbound fraction in rat plasma at 10 mg/kg, sc; type: ADME, organism-based; details: in vivo
[13] = Cmax in rat at 50 mg/kg, po after 0.25 hrs; type: ADME, organism-based; set-up: dose 50 mg/kg, route oral; details: in vivo
[14] = Terminal half life in rat at 50 mg/kg, po; type: ADME, organism-based; details: in vivo, read-out: beta t1/2 (converted)

cAMP and cAMP-inhibited cGMP 3',5'-cyclic phosphodiesterase 10A, sequence (Q9Y233 whole entry): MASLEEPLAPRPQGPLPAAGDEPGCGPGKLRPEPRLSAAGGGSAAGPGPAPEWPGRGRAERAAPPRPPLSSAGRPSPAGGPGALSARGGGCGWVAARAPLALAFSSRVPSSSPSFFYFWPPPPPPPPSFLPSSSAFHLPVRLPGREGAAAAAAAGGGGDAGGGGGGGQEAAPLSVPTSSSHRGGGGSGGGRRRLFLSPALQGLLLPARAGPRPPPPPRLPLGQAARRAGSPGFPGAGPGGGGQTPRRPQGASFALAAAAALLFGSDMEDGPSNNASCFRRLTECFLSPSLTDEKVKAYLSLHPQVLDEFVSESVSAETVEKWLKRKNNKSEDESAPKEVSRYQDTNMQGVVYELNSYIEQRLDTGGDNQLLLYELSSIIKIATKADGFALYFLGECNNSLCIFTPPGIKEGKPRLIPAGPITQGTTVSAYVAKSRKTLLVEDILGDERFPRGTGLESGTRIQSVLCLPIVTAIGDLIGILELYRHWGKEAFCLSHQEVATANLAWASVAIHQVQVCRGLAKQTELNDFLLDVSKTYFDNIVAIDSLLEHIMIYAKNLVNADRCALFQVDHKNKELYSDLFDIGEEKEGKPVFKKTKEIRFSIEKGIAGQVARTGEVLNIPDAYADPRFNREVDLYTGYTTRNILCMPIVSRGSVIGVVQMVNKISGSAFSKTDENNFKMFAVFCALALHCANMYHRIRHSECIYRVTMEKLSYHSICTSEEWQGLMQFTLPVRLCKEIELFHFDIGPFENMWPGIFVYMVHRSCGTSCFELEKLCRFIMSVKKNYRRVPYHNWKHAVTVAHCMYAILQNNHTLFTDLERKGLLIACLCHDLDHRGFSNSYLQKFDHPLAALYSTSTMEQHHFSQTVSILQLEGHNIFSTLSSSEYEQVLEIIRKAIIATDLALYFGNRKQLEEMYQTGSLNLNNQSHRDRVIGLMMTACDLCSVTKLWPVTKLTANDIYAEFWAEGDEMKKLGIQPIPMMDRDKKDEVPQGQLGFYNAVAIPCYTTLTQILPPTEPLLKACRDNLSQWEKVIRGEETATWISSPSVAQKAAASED
T1 sequence (Q01064 whole entry): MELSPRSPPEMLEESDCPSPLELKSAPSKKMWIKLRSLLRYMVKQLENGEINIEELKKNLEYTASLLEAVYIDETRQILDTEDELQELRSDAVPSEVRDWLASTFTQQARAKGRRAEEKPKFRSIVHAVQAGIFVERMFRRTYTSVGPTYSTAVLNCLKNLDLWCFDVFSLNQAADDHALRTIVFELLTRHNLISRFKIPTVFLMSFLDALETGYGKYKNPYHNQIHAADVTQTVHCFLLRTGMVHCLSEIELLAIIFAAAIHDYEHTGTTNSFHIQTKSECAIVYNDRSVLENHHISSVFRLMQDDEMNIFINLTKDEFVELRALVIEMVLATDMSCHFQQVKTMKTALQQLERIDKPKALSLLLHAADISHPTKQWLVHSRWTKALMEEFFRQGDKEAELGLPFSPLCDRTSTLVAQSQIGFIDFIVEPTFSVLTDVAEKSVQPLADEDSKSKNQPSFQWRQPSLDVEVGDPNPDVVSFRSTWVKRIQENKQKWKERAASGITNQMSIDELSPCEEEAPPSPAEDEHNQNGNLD

Compound `COc1ccc2c(N3C[C@H](C)C[C@H](C)C3)ccnc2c1OC` has an inhibition [1] of 0%.
`COc1cc2ncnc(C(C)c3cccc(Cl)c3)c2cc1OC` (stereo not drawn) showed an IC50 [2] of 230 nM.
Work on `COc1cc2nncc(N3CC(O)CC(c4ccccc4)C3)c2cc1OC` (stereo not drawn) yielded an IC50 [3] of 1 nM.
Work on `COc1cc2cnnc(N3CC(O)CC(c4ccccc4)C3)c2cc1OC` (stereo not drawn) yielded an IC50 [3] of 3 nM.
Work on `COc1ccc2c(C3CCc4ccc(Cl)cc43)ncnc2c1OC` (stereo not drawn) yielded an IC50 [2] of 4 nM.
With `CCC(CC)Nc1ncnc2c(OC)c(OC)c(OC)cc12` the Tmax [4] was 15 min, the half-life [5] was 120 min and the fraction unbound [6] was 0.18. It also gave a Ratio (Nucleic Acid [7]) of 0.28, a Tmax [8] of 15 min and a half-life [9] of 39.6 min. It also gave a fraction unbound [10] of 0.1, a blood plasma ratio [11] of 0.4 and a Ratio (Nucleic Acid [12]) of 0.9. It also gave a Cmax [13] of 10.9 µM and a half-life [14] of 306 min.
`COc1cc2c(N3C[C@H](C)C[C@H](C)C3)cnnc2c(OC)c1OC` showed an inhibition [1] of 0%.
`COc1ccc2c(C3CCc4ccc(Br)cc43)ncnc2c1OC` (stereo not drawn) gave an IC50 [2] of 8 nM.
`COc1cc2ncnc(C3CCc4ccc(Cl)cc43)c2cc1OC` (stereo not drawn) gave an IC50 [2] of 83 nM.
Work on `COc1ccc2c(C(C)c3cccc(Cl)c3)ncnc2c1OC` (stereo not drawn) yielded an IC50 [2] of 22 nM.
In the case of `COc1cc2ncnc(Cc3ccccc3)c2cc1OC`, the inhibition [1] is reported as 0%.
`COc1ccc2c(N3C[C@H](C)C[C@H](C)C3)nccc2c1OC` showed an inhibition [1] of 0%.
Work on `COc1cc2c(N3C[C@H](C)C[C@H](C)C3)nncc2c(OC)c1OC` yielded an inhibition [1] of 0%.
In the case of `COc1ccc2c([C@@H]3CCc4ccc(Cl)cc43)nccc2c1OC`, the IC50 [2] is reported as 458 nM.
For `COc1cc2ncnc(N3CC(O)CC(c4ccccc4)C3)c2cc1OC` (stereo not drawn), the IC50 [3] was 3 nM.
In the case of `COc1cc2ncnc(Cc3cccc(Cl)c3)c2cc1OC`, the inhibition [1] is reported as 24%.
With `COc1ccc2c(C3CCc4ccc(F)cc43)ncnc2c1OC` (stereo not drawn) the IC50 [2] was 38 nM.
Compound `COc1ccc2c(N3C[C@H](C)C[C@H](C)C3)ncnc2c1OC` has an IC50 [2] of 70 nM.
